± gives the standard deviation of the averaged measurements.
How the values were obtained:
[1] = compound: COCC[n+]1c2c(n(Cc3cnccn3)c1C)C(=O)c1ccccc1C2=O [YM155]; assay: surviving fraction relative to DMSO-only wells; higher = less growth inhibition; conditions: exposure time: 5 days
Procedure, shortened: (§1)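 Viability was scored with CellTiter-Glo luminescence and normalised to the median of DMSO-only wells as surviving fraction. Beforehand, log-phase tumour cell lines were seeded at 250–500 cells per well in 384-well plates, allowed 24 hours, and exposed continuously for five days to inhibitors at 0.5, 1, 5, 10, 50, 100, 500 and 1000 nM. Only lines whose three screens gave replicate Pearson r >0.7 and median Z' >0.3 were kept.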

[2] = compound: CC[C@@]1(O)C(=O)OCc2c1cc1n(c2=O)Cc2cc3ccccc3nc2-1 [CAMPTOTHECIN]; assay: as above; conditions: exposure time: 5 days
Procedure, shortened: as §1

Row | Test System | surviving fraction ([1]; 0.5 nM) | surviving fraction ([1]; 1 nM) | surviving fraction ([1]; 5 nM) | surviving fraction ([1]; 10 nM) | surviving fraction ([1]; 50 nM) | surviving fraction ([1]; 100 nM) | surviving fraction ([1]; 500 nM) | surviving fraction ([1]; 1000 nM) | surviving fraction ([2]; 0.5 nM) | surviving fraction ([2]; 1 nM) | surviving fraction ([2]; 5 nM) | surviving fraction ([2]; 10 nM) | surviving fraction ([2]; 50 nM) | surviving fraction ([2]; 100 nM) | surviving fraction ([2]; 500 nM) | surviving fraction ([2]; 1000 nM)
1 | SNU475 LIVER | 0.815 ± 0.055 | 0.991 ± 0.048 | 0.97 ± 0.044 | 0.944 ± 0.03 | 0.372 ± 0.035 | 0.123 ± 0.012 | 0.0263 ± 0.00058 | 0.0303 ± 0.0015 | 0.34 ± 0.0091 | 0.828 ± 0.034 | 0.635 ± 0.0066 | 0.482 ± 0.023 | 0.162 ± 0.0079 | 0.194 ± 0.012 | 0.103 ± 0.0081 | 0.104 ± 0.0085
2 | MDAMB134 BREAST | 0.783 ± 0.027 | 0.855 ± 0.052 | 0.759 ± 0.037 | 0.5665 ± 0.005 | 0.775 ± 0.051 | 0.634 ± 0.13 | 0.567 ± 0.0014 | 0.435 ± 0.064 | 0.662 ± 0.057 | 0.625 ± 0.048 | 0.66 ± 0.016 | 0.587 ± 0.031 | 0.602 ± 0.0085 | 0.594 ± 0.0057 | 0.587 ± 0.13 | 0.518 ± 0.044
3 | HOSMNG BONE | 0.934 ± 0.09 | 0.929 ± 0.1 | 0.889 ± 0.096 | 0.87 ± 0.11 | 0.198 ± 0.0064 | 0.132 ± 0.017 | 0.0837 ± 0.04 | 0.061 ± 0.0036 | 0.889 ± 0.11 | 0.973 ± 0.035 | 0.863 ± 0.1 | 0.875 ± 0.042 | 0.322 ± 0.035 | 0.214 ± 0.0082 | 0.0427 ± 0.0038 | 0.0287 ± 0.0015
4 | ZR751 BREAST | 0.835 ± 0.1 | 0.95 ± 0.085 | 0.559 ± 0.083 | 0.411 ± 0.07 | 0.128 ± 0.017 | 0.0917 ± 0.0067 | 0.0307 ± 0.0055 | 0.0287 ± 0.0031 | 0.774 ± 0.073 | 0.823 ± 0.12 | 0.693 ± 0.13 | 0.586 ± 0.099 | 0.266 ± 0.024 | 0.223 ± 0.005 | 0.121 ± 0.0096 | 0.0797 ± 0.0025
5 | OS25HAL BONE | 0.944 ± 0.046 | 0.987 ± 0.022 | 0.295 ± 0.029 | 0.158 ± 0.03 | 0.0603 ± 0.0068 | 0.0357 ± 0.0042 | 0.0193 ± 0.00058 | 0.0267 ± 0.0021 | 0.877 ± 0.013 | 0.862 ± 0.037 | 0.475 ± 0.03 | 0.145 ± 0.022 | 0.055 ± 0.001 | 0.0397 ± 0.0093 | 0.0247 ± 0.0032 | 0.037 ± 0.0069
6 | SUM159 BREAST | 0.994 ± 0.042 | 1.02 ± 0.032 | 0.536 ± 0.072 | 0.537 ± 0.057 | 0.069 ± 0.0098 | 0.0383 ± 0.0015 | 0.0217 ± 0.00058 | 0.0273 ± 0.00058 | 0.915 ± 0.014 | 0.937 ± 0.015 | 0.793 ± 0.018 | 0.26 ± 0.0036 | 0.1303 ± 0.00058 | 0.0763 ± 0.0031 | 0.03 ± 0.001 | 0.0283 ± 0.00058
7 | RDES SOFT TISSUE | 1.44 ± 0.073 | 1.58 ± 0.18 | 1.65 ± 0.19 | 0.622 ± 0.052 | 0.0673 ± 0.0035 | 0.0373 ± 0.0015 | 0.036 ± 0.002 | 0.0367 ± 0.0021 | 0.776 ± 0.076 | 0.735 ± 0.1 | 0.027 ± 0.001 | 0.0233 ± 0.00058 | 0.0347 ± 0.0011 | 0.0297 ± 0.0015 | 0.0263 ± 0.0011 | 0.0357 ± 0.0011
8 | SCC90 HEADNECK | 0.914 ± 0.097 | 0.937 ± 0.021 | 1.08 ± 0.1 | 1.1 ± 0.037 | 0.676 ± 0.085 | 0.276 ± 0.039 | 0.0483 ± 0.0067 | 0.0363 ± 0.0031 | 0.823 ± 0.035 | 0.879 ± 0.043 | 0.904 ± 0.058 | 0.75 ± 0.046 | 0.343 ± 0.056 | 0.253 ± 0.032 | 0.04 ± 0.0076 | 0.0327 ± 0.0051
9 | HU09 BONE | 0.942 ± 0.072 | 1.01 ± 0.13 | 0.925 ± 0.053 | 0.917 ± 0.11 | 0.5387 ± 0.004 | 0.374 ± 0.016 | 0.161 ± 0.0055 | 0.0983 ± 0.0055 | 0.84 ± 0.015 | 0.82 ± 0.06 | 0.311 ± 0.065 | 0.0673 ± 0.011 | 0.026 ± 0.0027 | 0.0207 ± 0.00058 | 0.0163 ± 0.00058 | 0.0203 ± 0.0011
10 | S68 BREAST | 0.884 ± 0.076 | 1.1 ± 0.45 | 0.674 ± 0.092 | 0.586 ± 0.038 | 0.143 ± 0.016 | 0.0627 ± 0.0061 | 0.0267 ± 0.00058 | 0.0277 ± 0.0015 | 0.576 ± 0.087 | 0.544 ± 0.073 | 0.442 ± 0.11 | 0.342 ± 0.041 | 0.284 ± 0.045 | 0.218 ± 0.021 | 0.0747 ± 0.012 | 0.0687 ± 0.0057
11 | CAL51 BREAST | 0.905 ± 0.039 | 0.873 ± 0.042 | 0.231 ± 0.029 | 0.105 ± 0.015 | 0.0278 ± 0.001 | 0.0232 ± 0.00058 | 0.019 ± 0.00087 | 0.024 ± 0.0005 | 0.923 ± 0.077 | 0.881 ± 0.05 | 0.797 ± 0.027 | 0.52 ± 0.014 | 0.0468 ± 0.0037 | 0.0333 ± 0.0025 | 0.0225 ± 0.00087 | 0.0242 ± 0.0021
12 | HUO3N1 BONE | 0.984 ± 0.065 | 1.06 ± 0.015 | 1.01 ± 0.036 | 1.06 ± 0.04 | 0.529 ± 0.14 | 0.477 ± 0.046 | 0.137 ± 0.0093 | 0.0927 ± 0.0065 | 0.761 ± 0.25 | 0.955 ± 0.14 | 0.639 ± 0.046 | 0.373 ± 0.057 | 0.228 ± 0.016 | 0.203 ± 0.025 | 0.1357 ± 0.0011 | 0.112 ± 0.0079
13 | HMT3552 BREAST | 0.983 ± 0.045 | 1.015 ± 0.009 | 1.06 ± 0.015 | 1.05 ± 0.056 | 0.17 ± 0.027 | 0.0797 ± 0.0055 | 0.0473 ± 0.0035 | 0.0537 ± 0.00058 | 0.955 ± 0.056 | 0.944 ± 0.087 | 0.782 ± 0.031 | 0.422 ± 0.0095 | 0.224 ± 0.0076 | 0.215 ± 0.0061 | 0.0953 ± 0.005 | 0.0647 ± 0.0081
14 | MDAMB468 BREAST | 0.953 ± 0.021 | 0.901 ± 0.035 | 0.325 ± 0.039 | 0.0717 ± 0.0067 | 0.034 ± 0.002 | 0.0367 ± 0.0031 | 0.0353 ± 0.0065 | 0.0377 ± 0.0021 | 0.872 ± 0.061 | 0.832 ± 0.095 | 0.782 ± 0.094 | 0.546 ± 0.056 | 0.158 ± 0.011 | 0.0843 ± 0.0055 | 0.0373 ± 0.0067 | 0.0367 ± 0.0025
15 | G292 BONE | 0.967 ± 0.04 | 1 ± 0.047 | 0.654 ± 0.024 | 0.528 ± 0.037 | 0.251 ± 0.0065 | 0.194 ± 0.007 | 0.0688 ± 0.0042 | 0.0473 ± 0.0024 | 0.901 ± 0.015 | 0.874 ± 0.047 | 0.591 ± 0.037 | 0.383 ± 0.014 | 0.292 ± 0.0027 | 0.18 ± 0.012 | 0.121 ± 0.0073 | 0.102 ± 0.0078
16 | HS578T BREAST | 1.03 ± 0.14 | 1.06 ± 0.19 | 0.993 ± 0.19 | 1.06 ± 0.082 | 0.739 ± 0.18 | 0.809 ± 0.066 | 0.274 ± 0.067 | 0.154 ± 0.027 | 0.811 ± 0.14 | 0.778 ± 0.18 | 0.729 ± 0.11 | 0.648 ± 0.091 | 0.464 ± 0.05 | 0.457 ± 0.054 | 0.228 ± 0.0098 | 0.212 ± 0.039
17 | MDAMB231 BREAST | 0.91 ± 0.0095 | 0.903 ± 0.024 | 0.112 ± 0.002 | 0.0683 ± 0.0035 | 0.0386 ± 0.0022 | 0.0352 ± 0.002 | 0.0302 ± 0.00043 | 0.0372 ± 0.0043 | 0.887 ± 0.025 | 0.902 ± 0.028 | 0.803 ± 0.04 | 0.603 ± 0.019 | 0.276 ± 0.0089 | 0.211 ± 0.007 | 0.0976 ± 0.004 | 0.0968 ± 0.0048
18 | BT20 BREAST | 0.907 ± 0.077 | 0.875 ± 0.089 | 0.0757 ± 0.0075 | 0.0613 ± 0.006 | 0.028 ± 0.0017 | 0.025 ± 0.0027 | 0.019 ± 0.002 | 0.027 ± 0.002 | 0.764 ± 0.067 | 0.744 ± 0.088 | 0.492 ± 0.089 | 0.197 ± 0.015 | 0.096 ± 0.0052 | 0.0537 ± 0.0075 | 0.0213 ± 0.0015 | 0.0257 ± 0.0025
19 | SG27 HEADNECK | 1.13 ± 0.13 | 1.05 ± 0.092 | 0.813 ± 0.13 | 0.575 ± 0.066 | 0.105 ± 0.035 | 0.0347 ± 0.0038 | 0.0367 ± 0.02 | 0.048 ± 0.017 | 0.702 ± 0.062 | 0.888 ± 0.19 | 0.867 ± 0.089 | 0.906 ± 0.021 | 0.724 ± 0.034 | 0.928 ± 0.096 | 0.482 ± 0.055 | 0.203 ± 0.025
20 | SG28 HEADNECK | 1.07 ± 0.083 | 1.17 ± 0.066 | 0.882 ± 0.025 | 0.631 ± 0.05 | 0.105 ± 0.005 | 0.058 ± 0.013 | 0.0285 ± 0.00071 | 0.033 ± 0.0014 | 0.21 ± 0.068 | 0.771 ± 0.12 | 0.579 ± 0.056 | 0.696 ± 0.099 | 0.337 ± 0.015 | 0.55 ± 0.044 | 0.211 ± 0.04 | 0.102 ± 0.0035

From the supplement of paper PMC6045584
